Results: patent publication US20220259193A1, “KCNT1 INHIBITORS AND METHODS OF USE” (Praxis Precision Medicines, Inc., priority 2019, published 2022)

biological target: T1, KCNT1 (KNa1.1, Slack) (Homo sapiens, UniProt Q5JUK3); assay: KCNT1 patch clamp assay (SyncroPatch 384PE automated patch clamp); format: cell-based; details: tetracycline inducible HEK-TREX cell line; perforated patch; step from −80 mV to 0 mV; room temperature; read-out: KCNT1-WT IC50
T1 construct: expressed in transfected cells; host or cells: HEK-TREX (tetracycline-inducible HEK cell line)
T1 sequence (Q5JUK3 1-1230): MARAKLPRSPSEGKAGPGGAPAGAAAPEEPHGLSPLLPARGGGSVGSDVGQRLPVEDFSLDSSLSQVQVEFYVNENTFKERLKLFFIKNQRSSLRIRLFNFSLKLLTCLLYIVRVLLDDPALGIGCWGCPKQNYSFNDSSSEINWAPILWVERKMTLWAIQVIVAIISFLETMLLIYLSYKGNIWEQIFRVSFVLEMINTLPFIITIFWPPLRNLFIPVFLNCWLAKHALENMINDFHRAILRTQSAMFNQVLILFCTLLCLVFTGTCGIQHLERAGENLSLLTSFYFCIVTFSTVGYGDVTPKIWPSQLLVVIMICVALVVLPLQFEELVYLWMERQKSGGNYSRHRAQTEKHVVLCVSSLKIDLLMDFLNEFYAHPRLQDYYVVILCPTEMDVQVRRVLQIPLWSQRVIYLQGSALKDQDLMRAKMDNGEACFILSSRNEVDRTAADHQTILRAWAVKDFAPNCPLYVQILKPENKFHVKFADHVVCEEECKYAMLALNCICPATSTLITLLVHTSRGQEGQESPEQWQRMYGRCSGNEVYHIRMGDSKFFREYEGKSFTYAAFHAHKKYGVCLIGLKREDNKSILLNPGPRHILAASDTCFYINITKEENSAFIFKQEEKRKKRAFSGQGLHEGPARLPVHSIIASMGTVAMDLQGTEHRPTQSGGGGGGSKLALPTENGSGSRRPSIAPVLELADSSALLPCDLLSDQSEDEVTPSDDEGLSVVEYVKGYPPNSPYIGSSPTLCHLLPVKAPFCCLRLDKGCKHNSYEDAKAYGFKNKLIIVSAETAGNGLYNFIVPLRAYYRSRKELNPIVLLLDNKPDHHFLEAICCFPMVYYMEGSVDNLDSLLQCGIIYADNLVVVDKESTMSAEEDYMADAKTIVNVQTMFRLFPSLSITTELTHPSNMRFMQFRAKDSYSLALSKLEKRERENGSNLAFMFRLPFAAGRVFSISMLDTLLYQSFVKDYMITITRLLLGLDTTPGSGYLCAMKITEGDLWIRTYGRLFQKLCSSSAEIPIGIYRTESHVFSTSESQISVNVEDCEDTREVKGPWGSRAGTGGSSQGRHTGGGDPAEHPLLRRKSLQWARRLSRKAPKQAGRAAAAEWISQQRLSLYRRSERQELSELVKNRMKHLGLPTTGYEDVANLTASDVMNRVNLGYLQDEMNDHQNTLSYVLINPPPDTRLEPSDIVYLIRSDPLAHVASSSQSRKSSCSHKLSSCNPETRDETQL
Experimental: KCNT1—Patch Clamp Assay Inhibition of KCNT1 (KNa1.1, Slack) was evaluated using a tetracycline inducible cell line (HEK-TREX). Currents were recorded using the SyncroPatch 384PE automated, patch clamp system. Pulse generation and data collection were performed with PatchController384 V1.3.0 and DataController384 V1.2.1 (Nanion Technologies). The access resistance and apparent membrane capacitance were estimated using built-in protocols. Current were recorded in perforated patch mode (10 μM escin) from a population of cells. […] The cells were allowed to recover in the cell hotel prior to experimentation. Currents were recorded at room temperature. […] The extracellular solution was used as the wash, reference and compound delivery solution. […] Escin is made at a 5 mM stock in water, aliquoted, and stored at −20° C. The compound plate was created at 2× concentrated in the extracellular solution. The compound was diluted to 1:2 when added to the recording well. The amount of DMSO in the extracellular solution was held constant at the level used for the highest tested concentration. A holding potential of −80 mV with a 100 ms step to 0 mV was used. […] The average mean current from 3 sweeps was calculated and the % inhibition of each compound was calculated. The % Inhibition as a function of the compound concentration was fit with a Hill equation to derive IC50, slope, min and max parameters.

SMILES	IC50 [nM]
CC(NC(=O)c1cc(C(F)(F)F)nn1C)c1nc(-c2cc(F)cc(F)c2)no1 (stereo not drawn) [Compound 103]	≤ 1000
CC(C)Oc1cc(-c2noc([C@H](C)NC(=O)c3cc(-c4ccc(F)cc4)nn3C)n2)ccn1 [Compound 223, (S)-3-(4-fluorophenyl)-N-(1-(3-(2-isopropoxypyridin-4-yl)-1,2,4-oxadiazol-5-yl)ethyl)-1-methyl-1H-pyrazole-5-carboxamide]	≤ 1000
CN(C)C(=O)C[C@@H](NC(=O)c1cc(C(F)(F)F)nn1C)c1nc(-c2cccc(F)c2)no1 (single isomer, unassigned) [Compound 135]	1000 to 20000
COC(=O)c1cccc(-c2noc(C(C)NC(=O)c3cc(C(F)(F)F)nn3C)n2)c1 (stereo not drawn) [Compound 181, methyl 3-(5-(1-(1-methyl-3-(trifluoromethyl)-1H-pyrazole-5-carboxamido)ethyl)-1,2,4-oxadiazol-3-yl)benzoate]	≤ 1000
C[C@H](NC(=O)c1cc(C(F)(F)F)nn1C)c1nc(-c2ccnc(CN3CCCC3)c2)no1 [Compound 261, (S)-1-methyl-N-(1-(3-(2-(pyrrolidin-1-ylmethyl)pyridin-4-yl)-1,2,4-oxadiazol-5-yl)ethyl)-3-(trifluoromethyl)-1H-pyrazole-5-carboxamide]	≥ 20000
Cn1nc(C(F)(F)F)cc1C(=O)NC(CS(C)(=O)=O)c1nc(-c2cccc(F)c2)no1 (stereo not drawn) [Compound 171]	1000 to 20000
CC(NC(=O)c1cc(C(F)(F)F)nn1C)c1nc(-c2cccc(C(N)=O)c2)no1 (stereo not drawn) [Compound 193, N-(1-(3-(3-carbamoylphenyl)-1,2,4-oxadiazol-5-yl)ethyl)-1-methyl-3-(trifluoromethyl)-1H-pyrazole-5-carboxamide]	≥ 20000
Cn1nc(C(F)(F)F)cc1C(=O)NC1(c2nc(-c3cccc(F)c3)no2)CCOCC1 [Compound 118]	1000 to 20000
C[C@H](NC(=O)OC(C)(C)C)c1nc(-c2ccnc(C(F)F)c2)no1 [Compound 291, tert-butyl (S)-(1-(3-(2-(difluoromethyl)pyridin-4-yl)-1,2,4-oxadiazol-5-yl)ethyl)carbamate]	1000 to 20000
Cc1nn(CC(F)(F)F)cc1C(=O)N[C@@H](C)c1nc(-c2cccc(F)c2)no1 [Compound 164]	1000 to 20000
CNC(=O)C[C@@H](NC(=O)c1cc(C(F)(F)F)nn1C)c1nc(-c2cccc(F)c2)no1 (single isomer, unassigned) [Compound 114]	≥ 20000
C[C@H](NC(=O)OC(C)(C)C)c1nc(-c2ccnc(C(F)(F)F)c2)no1 [Compound 295, tert-butyl (S)-(1-(3-(2-(trifluoromethyl)pyridin-4-yl)-1,2,4-oxadiazol-5-yl)ethyl)carbamate]	≤ 1000
CC[C@H](NC(=O)c1cc(C(F)(F)F)nn1C)c1nc(-c2ccnc(C3CC3)c2)no1 [Compound 248, (S)—N-(1-(3-(2-cyclopropylpyridin-4-yl)-1,2,4-oxadiazol-5-yl)propyl)-1-methyl-3-(trifluoromethyl)-1H-pyrazole-5-carboxamide]	≤ 1000
Cc1cc(C(=O)N[C@@H](C)c2nc(-c3ccnc(C4CC4)c3)no2)n(C)n1 [Compound 227, (S)—N-(1-(3-(2-cyclopropylpyridin-4-yl)-1,2,4-oxadiazol-5-yl)ethyl)-1,3-dimethyl-1H-pyrazole-5-carboxamide]	≤ 1000
C[C@@H](NC(=O)OC(C)(C)C)c1nc(-c2cccc(F)c2)no1 [Compound 282, tert-butyl (R)-(1-(3-(3-fluorophenyl)-1,2,4-oxadiazol-5-yl)ethyl)carbamate]	1000 to 20000
COC(=O)CC(NC(=O)c1cc(C(F)(F)F)nn1C)c1nc(-c2cccc(F)c2)no1 (single isomer, unassigned) [Compound 126, methyl 3-[3-(3-fluorophenyl)-1,2,4-oxadiazol-5-yl]-3-[[2-methyl-5-(trifluoromethyl)pyrazole-3-carbonyl]amino]propanoate]	≤ 1000
CC(NC(=O)c1cc(C2CC2)nn1C)c1nc(-c2ccc(Cl)cc2)no1 (stereo not drawn) [Compound 9]	≤ 1000

SMILES	IC50 [nM]
C[C@@H](NC(=O)OC(C)(C)C)c1nc(-c2ccnc(C(F)(F)F)c2)no1 [Compound 296, tert-butyl (R)-(1-(3-(2-(trifluoromethyl)pyridin-4-yl)-1,2,4-oxadiazol-5-yl)ethyl)carbamate]	1000 to 20000
Cn1nc(C(F)(F)F)cc1C(=O)NC(CNS(C)(=O)=O)c1nc(-c2cccc(F)c2)no1 (stereo not drawn) [Compound 169]	1000 to 20000
Cc1cccc(-c2noc(C(C)NC(=O)c3cnn(C(C)C)c3C)n2)c1 (stereo not drawn) [Compound 59]	≥ 20000
CC(NC(=O)c1cc(C(F)(F)F)nn1C(F)F)c1nc(-c2cccc(Cl)c2)no1 (stereo not drawn) [Compound 73]	≤ 1000
COc1cccc(-c2noc([C@H](C)NC(=O)c3cc(C(F)(F)F)nn3C)n2)c1 [Compound 196, (S)—N-(1-(3-(3-methoxyphenyl)-1,2,4-oxadiazol-5-yl)ethyl)-1-methyl-3-(trifluoromethyl)-1H-pyrazole-5-carboxamide]	≤ 1000
Cn1nc(C(F)(F)F)cc1C(=O)NCc1nc(-c2ccnc(C(F)(F)F)c2)no1 [Compound 300, 2-methyl-5-(trifluoromethyl)-N-[[3-[2-(trifluoromethyl)-4-pyridyl]-1,2,4-oxadiazol-5-yl]methyl]pyrazole-3-carboxamide]	≤ 1000
CC[C@@H](NC(=O)c1cc(C2CC2)nn1C)c1nc(-c2cccc(F)c2)no1 [Compound 61]	≤ 1000
CN(C)C(=O)C[C@H](NC(=O)c1cc(C(F)(F)F)nn1C)c1nc(-c2cccc(F)c2)no1 (single isomer, unassigned) [Compound 136]	1000 to 20000
C[C@H](NC(=O)c1cc(C(F)(F)F)nn1C(F)F)c1nc(-c2cccc(F)c2)no1 [Compound 127]	≤ 1000
C[C@H](NC(=O)c1cc(C(F)(F)F)nn1C)c1nc(-c2ccnc(OCC(F)F)c2)no1 [Compound 211, (S)—N-(1-(3-(2-(2,2-difluoroethoxy)pyridin-4-yl)-1,2,4-oxadiazol-5-yl)ethyl)-1-methyl-3-(trifluoromethyl)-1H-pyrazole-5-carboxamide]	≤ 1000
CC[C@H](NC(=O)c1cc(C)nn1C1CCOCC1)c1nc(-c2ccnc(C)c2)no1 [Compound 217, (S)-3-methyl-N-(1-(3-(2-methylpyridin-4-yl)-1,2,4-oxadiazol-5-yl)propyl)-1-(tetrahydro-2H-pyran-4-yl)-1H-pyrazole-5-carboxamide]	1000 to 20000
CC[C@@H](NC(=O)c1cc(C(F)(F)F)nn1C)c1nc(-c2ccnc(C3CC3)c2)no1 [Compound 266, N-[(1R)-1-[3-(2-cyclopropyl-4-pyridyl)-1,2,4-oxadiazol-5-yl]propyl]-2-methyl-5-(trifluoromethyl)pyrazole-3-carboxamide]	≤ 1000
CC(C)[C@@H](NC(=O)c1cc(C2CC2)nn1C)c1nc(-c2cccc(F)c2)no1 [Compound 62]	1000 to 20000
CC[C@H](NC(=O)OC(C)(C)C)c1nc(-c2ccnc(C)c2)no1 [Compound 284, tert-butyl (S)-(1-(3-(2-methylpyridin-4-yl)-1,2,4-oxadiazol-5-yl)propyl)carbamate]	1000 to 20000
CO[C@@H](C)[C@H](NC(=O)c1cc(C(F)(F)F)nn1C)c1nc(-c2cccc(F)c2)no1 [Compound 142]	1000 to 20000
Cc1nn(CC(F)F)cc1C(=O)N[C@@H](C)c1nc(-c2cccc(F)c2)no1 [Compound 163]	1000 to 20000
